Measured values published in patent US20070178577A1, “Method for effecting the anaerobic biological decomposition of organsiloxanes” (WACKER CHEMIE AG, priority 2004, published 2007).

What was measured:
Sewage sludge = test: Anaerobic decomposition of octamethylcyclosiloxane (D4) by sewage sludge with nitrate as electron acceptor, gas chromatography; details: in 11 days
Method: The experiment was carried out in accordance with Example 1. In each case five flasks were made up with sewage sludge and five flasks with inactivated sewage sludge. As carbon source, octamethylcyclosiloxane (D4) was added to the medium. The siloxane is immiscible with water and first forms an oily film on the culture surface. With advancing culture time, the siloxane oil is emulsified in the culture. Relatively large cell aggregates form. Culture proceeds in accordance with Example 1 in the mineral medium specified there (SM1) comprising 5 g/l of KNO3 as electron acceptor. As sole carbon source, octamethylcyclosiloxane (D4) was added to the batches (1 ml per 100 ml of medium). After differing incubation times, the D4 content of the batches was determined. The entire batch was extracted 3 times with 50 ml of pentane, and to facilitate phase separation, it was centrifuged each time. The pentane phases were combined and D4 determined quantitatively directly by means of gas chromatography (Hewlett Packard instrument hp5890_li). The gas-chromatographic determination proceeded using a 30 m capillary (Hewlett Packard HP-1 No. 59026323) using nitrogen as carrier gas. Temperature program: 50° C. (5 min)−270° C. at 20° C./min. Detection was by means of FID at 300° C. The resultant signal peaks were quantified using corresponding standard solutions.

[1] = tested on: Sewage sludge from a municipal sewage treatment plant; test: Anaerobic decomposition of dimethylsilanediol (DMSD) by sewage sludge with nitrate as electron acceptor, 1H-NMR; details: in 11 days
Text: Sewage sludge from a municipal sewage treatment plant was taken off from running operations under oxygen-free conditions (N2-comprising sample vessels). To separate off interfering substrates, the cell mass was resuspended in 5-times the volume of an oxygen-free buffer (50 mmol/l of potassium phosphate pH 6.8) and centrifuged off. Oxygen-free solutions were produced by degassing the solution and purging with gaseous nitrogen.
The operation (resuspending/centrifuging) was repeated 3 times.
The washed oxygen-free cell mass was transferred in the absence of oxygen into shake flasks comprising culture medium (10 g of moist cell mass per 100 ml of medium). For control batches, the sewage sludge was autoclaved and inactivated thereby. […]
As electron acceptor, in addition, 5 g/l of KNO3 were added. […] Samples of the culture medium were taken off at regular intervals and analyzed immediately. […]
Analysis: In experiments using DMSD as a substrate, the change in concentration of DMSD in the aqueous phase was determined by means of proton magnetic resonance spectroscopy (^1H-NMR). […] Samples (0.9 ml) from the culture batches were taken off for this directly (via the stopper) from the vessel, admixed with standard (TSP in D2O; TSP=3-(trimethylsilyl)propionic acid-D4 sodium salt) and analyzed in the spectrometer. The DMSD signal can be quantified exactly via the known standard signal).

[2] = anaerobically incubated batch comprising sewage sludge
[3] = control batch (inactivated sewage sludge)

Compound | decrease in the amount of D4 (Sewage sludge; [2]) | decrease in the amount of D4 (Sewage sludge; [3]) | decrease of the amount of DMSD [1, 2] | decrease of the amount of DMSD [1, 3]
C[Si]1(C)O[Si](C)(C)O[Si](C)(C)O[Si](C)(C)O1 [D4, Octamethylcyclosiloxane] | −16.3% | −6.2% | – | –
C[Si](C)(O)O [DMSD, Dimethylsilanediol] | – | – | −39% | −9%
